Experimental data reported in US10526579B2, “Podocyte cultures and uses thereof” (RUSH UNIVERSITY MEDICAL CENTER, priority 2013, dated 2020).

How the values were obtained:
[1] = system: cultured podocytes; test: High-content F-actin stress fiber assay in cultured differentiated podocytes (phalloidin stain); assay type: cell-based, murine; conditions: 48 h at 37° C., 96-well plates
Description: (§1) A dose-response curve showing the effects of increasing concentration of podocyte injuring drug puromycin aminonucleoside (PAN) on various cellular parameters, including the intensity and the number of actin fibers, in cultured podocytes. Differentiated podocytes were cultured in 96-well multiwell plates. Cells were either kept in normal cell culture media or were treated with increasing concentration of PAN for 48 h at 37° C. Subsequently, the cells were fixed with paraformaldehyde and the filamentous actin (F-actin) fibers stained using Alexa Fluor 594-labeled phalloidin. Cells were imaged using PerkinElmer OPERA High-content screening microscope and the images were analyzed using PerkinElmer Columbus analysis system to count F-actin fibers per cell in each well of the multiwell plate. FIGS. 4A and 4B show representative images of untreated (A) and PAN-treated (B) podocytes. […] These two parameters also gave a reproducible IC50 value for PAN as an in vitro podocyte damaging agent. Each data point represents average F-actin fiber count per cell (from approximately 500-2000 cells/well) from a single well.
FIG. 5. […] Cells were imaged using PerkinElmer OPERA High-content screening microscope and the images were analyzed using PerkinElmer Columbus analysis system to count F-actin fibers per cell in each well of the multiwell plate. […]

[2] = system: cultured podocytes; test: High-content focal adhesion assay in cultured differentiated podocytes (anti-paxillin stain); assay type: cell-based, murine; conditions: 48 h at 37° C., 96-well plates
Description: as §1, with “FIG. 6. […]” for “A dose-response curve showing the effects of increasing concentration of podocyte injuring drug puromycin aminonucleoside (PAN) on various cellular parameters, including the intensity and the number of actin fibers, in cultured podocytes.”, “focal adhesions were” for “filamentous actin (F-actin) fibers”, “an anti-paxillin antibody.” for “Alexa Fluor 594-labeled phalloidin.”, “6A” for “4A”, “6B” for “4B”, “average” for “average F-actin fiber”
FIG. 7. Focal adhesion protection with Mizouribine. […] Cells were imaged using PerkinElmer OPERA High-content screening microscope and the images were analyzed using PerkinElmer Columbus analysis system to count F-actin fibers per cell in each well of the multiwell plate. […] The method allowed quantitative assessment of podocyte protection in a dose-response fashion using these parameters based on the podocyte focal adhesions when treated with the compounds PAN and mizouribine. […]

[3] = co-treatment with PAN and increasing concentration of mizouribine
[4] = increasing concentration of PAN

| Structure (SMILES) | protection of podocyte actin fibers from PAN damage [1, 3] | protection of podocyte focal adhesions from PAN damage [2, 3] | effect on intensity and number of actin fibers (relative spot to background intensity; whole cell fibers - number of objects) [1, 4] | effect on number and intensity of focal adhesions (relative spot to background intensity; FA - number of objects) [2, 4] |
| --- | --- | --- | --- | --- |
| NC(=O)c1ncn([C@@H]2O[C@H](CO)[C@@H](O)[C@H]2O)c1O [Mizouribine, mizouribine] | dose-dependently prevents podocyte damage | protects the focal adhesions from PAN damage | – | – |
| CN(C)c1ncnc2c1ncn2[C@@H]1O[C@H](CO)[C@@H](N)[C@H]1O [PAN, puromycin aminonucleoside] | – | – | podocyte damage in a dose-response fashion | leads to reduced focal adhesions |
